Laboratory results from article PMC3283556, “The Activities of Current Antimalarial Drugs on the Life Cycle Stages of Plasmodium: A Comparative Study with Human and Rodent Parasites” (PLoS Medicine, 2012).
“Also recorded” adds a separate entry of the source. Read-outs that look alike come from different tables or passages of the source.

Legend:
[1] = test system: P. falciparum mature gametocytes / male gamete exflagellation; assay: P. falciparum exflagellation assay; assay type: cell-based, Plasmodium falciparum; conditions: for inhibition at 10 µM: Plasmodium falciparum
Protocol: After 24 h, exflagellation was triggered by a temperature decrease to ∼21°C and observed 20 min later under the microscope. Highly motile exflagellation centres were recorded for ∼50–150 adjacent fields of view and reported per 10,000 RBCs.
(§1) (A) Assays examined exflagellation (P. falciparum), ookinete formation (P. berghei), or oocyst formation (P. falciparum). All antimalarials were screened at 10 µM. (B) The biological content of the in vitro P. berghei ookinete assay spans gamete formation, fertilization, zygote development, and ookinete formation. […] (D) The in vitro P. falciparum exflagellation assay exposes mature gametocytes to antimalarials for 24 h before triggering exflagellation. […] All experiments in triplicate. (E) The in vivo P. falciparum oocyst assay differs from the P. berghei oocyst assay in that mature gametocytes were exposed to the antimalarials in culture for 24 h before feeding to mosquitoes.

[2] = test system: P. falciparum oocyst formation; assay: Standard membrane feed assay, P. falciparum oocysts in A. stephensi; assay type: in vivo, Plasmodium falciparum; conditions: 10 µM, gametocytes exposed 24 h before feeding
Protocol: (§2) Gametocyte cultures were produced according to the same protocol as the Pf exflagellation assay. Pooled gametocyte cultures were evenly divided between compounds in fresh medium and incubated at 37°C for 24 h. The parasite pellets were then resuspended in fresh RBCs and human serum treated with the compounds to a 50% haematocrit and immediately fed to mosquitoes as described above and then maintained at 27°C/60%RH for 10–12 d before dissection and counting.
as §1, with “Figure 3 The transmission-blocking potential of selected antimalarials in three bioassays that cover different phases of Plasmodium vector stage development. (A)” for “(A)”, “formation. Ookinete formation was insensitive to most of the antimalarials tested.” for “formation.”, “mosquitoes. […] NPC1161-B, lumefantrine, halofantrine, and mefloquine +RS isomer were also active. (n = 4–61 observations; average ± standard error of the mean [SEM]).” for “mosquitoes.”

[3] = test system: P. falciparum asexual blood stage parasites (strains NF54, D6, K1, W2, 7G8, TM90C2A, V1/S); assay: [3H]-hypoxanthine incorporation growth inhibition assay, asexual blood stage; assay type: cell-based, Plasmodium falciparum
Protocol: In vitro antimalarial activity was measured using the [^3H]-hypoxanthine incorporation assay with various strains of P. falciparum obtained from MR4. Results were expressed as the concentration resulting in 50% inhibition (IC50).
The half-maximal inhibitory concentrations (IC50) were determined for each molecule (Table S2).
Figure 2 The potencies of selected antimalarials against asexual blood stages. Main classes of antimalarials were tested against the blood stage of seven Plasmodium falciparum strains in the [^3H]hypoxanthine incorporation assay as described in Vennerstrom et al.. The strains tested here (obtained from MR4) were two drug-sensitive strains NF54 and D6 and five drug-resistant strains: K1, resistant to chloroquine (CQ) and pyrimethamine (PYR), origin Thailand, carries mutations in genes pfmdr1, pfcrt, pfdhfr, pfdhps; W2, resistant to CQ, PYR, quinine, cycloguanil, and sulfadoxine, origin Vietnam; 7G8, resistant to CQ and PYR, origin Brazil; TM90C2A, resistant to CQ, PYR, and MFQ, origin Thailand; and V1/S, resistant to CQ, PYR and cycloguanil, origin Vietnam. Results are expressed as the concentration resulting in 50% growth inhibition (IC50).Values are means of ≥3 independent experiments. (A) Endoperoxides. (B) 4-AQs. (C) 8-AQs and amino alcohols. (D) Antifolates, antibiotics, and others.

Plasmodium oocysts = assay: Oocyst development / sporogony, Plasmodium species not stated at the place; assay type: in vivo; conditions: for inhibition at 10 µM: Plasmodium, box linked to oocysts, read-out: Inhibition at 10 μM (oocysts, Figure 5); for effect on sporogony / oocyst production: species not given
Protocol: (§3) Membrane feeds were performed as described previously. Briefly, PbGFPcon-infected mouse blood was mixed with compounds, immediately placed into membrane feeders (39°C) and offered for 30 min to 80–100 overnight-starved A. stephensi (SDA 500 strain). After 7–9 d at 19°C/80%RH, mosquito midguts were dissected out. Midguts were fixed with paraformaldehyde and oocyst number was determined microscopically by semi-automated analysis as previously described.
as §2, with “counting. […]” for “counting.”

[4] = test system: P. berghei ookinete formation; assay: P. berghei ookinete development assay; assay type: cell-based, Plasmodium berghei; conditions: for effect on ookinete formation: 10 µM; for inhibition at 10 µM: Plasmodium berghei, box linked to ookinete, read-out: Inhibition at 10 μM (ookinete, Figure 5)
Protocol: Compounds and P. berghei gametocyte-infected blood were dispensed in a 96-well plate containing ookinete medium. After 24 h at 19°C, Giemsa-stained ookinetes were counted under the microscope (×40) as previously described,[28].
as §1, with “Figure 3 The transmission-blocking potential of selected antimalarials in three bioassays that cover different phases of Plasmodium vector stage development. (A)” for “(A)”, “formation. Ookinete formation was insensitive to most of the antimalarials tested.” for “formation.”, “mosquitoes. […] NPC1161-B, lumefantrine, halofantrine, and mefloquine +RS isomer were also active. (n = 4–61 observations; average ± standard error of the mean [SEM]).” for “mosquitoes.”

[5] = test system: P. yoelii liver stage parasites (liver schizonts); assay: P. yoelii liver stage assay in HepG2 cells (EEF immunofluorescence); assay type: cell-based, Plasmodium yoelii; conditions: Plasmodium yoelii
Protocol: (§4) 7.5×10^3 HepG2 cells in 50 µl of medium (1.5×10^5 cells/ml) were seeded in 384 well plates (Aurora 384 IQ-EB Black/Clear Plates) 20–26 h prior to the actual infection. 2 h prior to infection, 50 nl of compound in DMSO (0.1% final DMSO concentration per well) were transferred with a PinTool (GNF Systems) into the assay plates (10 µM final concentration). P. yoelii sporozoites were freshly dissected from infected A. stephensi mosquito salivary glands and filtered twice with a 40-µm strainer. The HepG2 cells were then infected with 8×10^3 sporozoites per well. After infection and 1-h incubation at 37°C, the cultures were washed, new media and compound added, and further incubated with 5-fold increased concentration of penicillin/streptomycin for 48 h at 37°C before exoerythrocytic forms (EEFs) quantification of infected cells by immunofluorescence.
After washing with 1×PBS and fixation of the cells with 4% paraformaldehyde solution (EMS), membranes were permeabilised with 0.5% Triton-X-100 (Thermo Fisher Scientific) and EEFs were stained using a mouse polyclonal serum raised against the Plasmodium heat shock protein 70 (HSP70), an Alexa goat antimouse IgG, Fca-specific DyLight 649 secondary antibody (Invitrogen), and the Hoechst 33342 nucleic acid dye (Invitrogen). Stained EEFs were then quantified using the Opera Confocal High Content Screening system (PerkinElmer). Images were collected using a 20× magnification at a binning of 2 using a 365 Xeon arc lamp illumination to detect the nuclei and 635-nm laser line to excite DyLight649.
(§5) High-content imaging of infected HepG2-CD81 cells was performed as described in Meister et al.. Wells were analysed using a custom Acapella (PerkinElmer) script parameterized for this assay. In brief, images from fields inside the well were first discarded as out of focus when the intensity in the nuclear area was too low. Then hepatic cells were counted by detecting the nuclei labelled with Hoechst 33342 and parasites were segmented using the HSP70 immuno-labelling. Morphology-based (e.g., area, roundness) and intensity-based features were calculated for each object detected including the hepatocyte nuclei and the parasites. Parasitemia was set as the ratio between parasite number (Alexa fluor positive) and the hepatocyte nuclei count, determined at the same time.
(§6) When an infected mosquito bites a host, ∼100 sporozoites may be injected into the dermis from where they rapidly invade liver cells,[33]. This infective step represents the second bottleneck during transmission and therefore another potentially vulnerable point for intervention. In the absence of a practical liver stage assay measuring the formation of P. falciparum/P. vivax liver schizonts, an equivalent assay was developed in P. yoelii and used to assess the activity of the collection of molecules against this specific stage. Specifically, P. yoelii sporozoites were dissected from the salivary glands of infected mosquitoes and were allowed to invade human hepatocarcinoma cells expressing the CD81 protein. The development of the liver schizonts was monitored by immunofluorescence staining using an HSP70 antibody specific to the parasite (Figure 4A).
Figure 4 Validation and results of anti-infectives tested against P. yoelii liver stage parasites. (A) Opera-generated images from a time point experiment using a 20× objective lens. P. yoelii parasites (red) were visualized using a mouse polyclonal HSP70 antibody, and the HepG2 cells (green) were stained with Hoechst 33342 nucleic acid dye. […] (B) A dose response plot with atovaquone from data generated from the Opera imaging system. The median areas of compound-treated parasites were compared to untreated DMSO controls to determine the degree of inhibition.

[6] = test system: P. berghei ookinete formation; assay: P. berghei ookinete development assay; assay type: cell-based; conditions: Plasmodium berghei; medium throughput fluorescent ookinete assay
HepG2 cells = assay: Growth retardation of HepG2 cells
Protocol: as §4, §5, §6

[7] = test system: P. berghei oocyst formation; assay: Standard membrane feed assay, P. berghei oocysts in A. stephensi; assay type: in vivo, Plasmodium berghei; conditions: for transmission-blocking effect on P. berghei oocysts (words): 10 µM
Protocol: as §3
Supplementary file pmed.1001169.s001.tif: Figure S1 The transmission-blocking potential of selected compounds against P. berghei in standard membrane feeding assays. All antimalarials were screened at 10 µM in triplicate in independent experiments. The biological content of this assay spans gamete formation through to occyst development all within the gut of the mosquito. […] (TIF) Click here for additional data file.

[8] = parameters: method as in PMID 22759078, PMID 17053895, PMID 18694333, PMID 18840754, PMID 19776738; conditions: human blood, therapeutic / relevant doses; cited from earlier work
[9] = test system: P. falciparum and P. vivax; parameters: method as in personal communication, MMV; conditions: phase IIa, P. falciparum and P. vivax patients; ref personal communication, MMV; cited from earlier work
[10] = read-out: inhibition of exflagellation, 10 µM, 24 h exposure of mature gametocytes
[11] = 10 μM, box linked to gametocytes/exflagellation, read-out: Inhibition at 10 μM (gametocytes/exflagellation, Figure 5)
[12] = HepG2, box linked to liver schizont, read-out: IC50 (liver schizont, Figure 5)
[13] = 10 µM, 24 h exposure of mature gametocytes

SMILES	inhibition at 10 µM [1, 10]	inhibition at 10 µM [1, 11]	transmission-blocking effect on P. falciparum oocysts (words) [2]	inhibition at 10 µM (Plasmodium oocysts)	effect on ookinete formation [4]	inhibition at 10 µM [4]	IC50 [5, 12]	IC50 [6]	effect on exflagellation (words) [1, 13]	Cmax [8]	effect on sporogony / oocyst production (Plasmodium oocysts)	further results
OC(c1cc(C(F)(F)F)nc2c(C(F)(F)F)cccc12)C1CCCCN1 (stereo not drawn) [mefloquine (+RS)]	> 80%	> 60%	totally blocked transmission	> 90%								transmission-blocking effect on P. falciparum oocysts (words) ([2]; listed as mefloquine +RS isomer): active; IC50 ([3]; strain not specified): < 10 nM
O=C1C(O)=C([C@H]2CC[C@H](c3ccc(Cl)cc3)CC2)C(=O)c2ccccc21 [atovaquone]					strongly inhibited ookinete formation	> 80%	< 1000 nM	65 nM				potency range against blood stages ([3]; P. falciparum blood stages): subnanomolar range; IC50 ([3]; Plasmodium falciparum, Erythrocyte, box linked to blood stage schizont, read-out: IC50 (erythrocyte schizont, Figure 5)): < 1 nM; fold difference in potency between strains ([3]; between the strains D6 and V1/S): ≤ 10 fold
COc1ccc2nc3cc(Cl)ccc3c(Nc3cc(CN4CCCC4)c(O)c(CN4CCCC4)c3)c2n1 [pyronaridine]	> 80%	> 60%			strongly inhibited ookinete formation	> 80%	< 1000 nM	6000 nM	inhibited P. falciparum exflagellation			effect on exflagellation (words) ([1]; 10 µM, 24 h exposure of mature gametocytes, listed as Pyronaridine): inhibited exflagellation totally; IC50 (HepG2 cells; Homo sapiens, HepG2, read-out: IC50 HepG2): < 170 nM; CI (cytotoxicity index) (HepG2 cells; IC50 HepG2 compared to IC50 parasite): <0.63; IC50 ([5]; HepG2, development of P. yoelii liver schizonts following infection of HepG2 cells, read-out: IC50 Parasite): 270 ± 130 nM; IC50 ([5]; HepG2, dose response, read-out: IC50 liver stage): < 3000 nM; IC50 ([3]; Plasmodium falciparum, asexual blood stage, all parasite lines): 2 to 10 nM
CCCCN(CCCC)CC(O)c1cc(Cl)cc2c1-c1ccc(Cl)cc1/C2=C/c1ccc(Cl)cc1 (stereo not drawn) [lumefantrine]			active; also recorded: impaired sporogony	> 90%	little activity				only moderate or no inhibition of exflagellation	13.9 µM	impairs development in the vector	effect on exflagellation (words) ([1]; 10 µM, 24 h exposure of mature gametocytes, listed as Lumefantrine): little activity; transmission-blocking effect on P. falciparum oocysts (words) ([2]; listed as Lumefantrine): showed activity; transmission-blocking effect on P. berghei oocysts (words) [7]: impaired sporogony; also recorded: most notable transmission-blocking activity; transmission-blocking effect on P. berghei oocysts (words) ([7]; listed as Lumefantrine): showed activity; inhibition at 10 µM ([7]; Plasmodium berghei): > 90%; IC50 ([3]; Plasmodium falciparum): < 4 nM
c1cc([C@H]2CC[C@]3(CC2)OO[C@]2(O3)C3CC4CC(C3)CC2C4)ccc1OCCN1CCOCC1 [OZ439]		> 60%		> 90%					strong inhibitors of gametocyte maturation/gamete formation		impact sporogony	clinical efficacy [9]: equivalent efficacy in the treatment of P. falciparum and P. vivax patients
CO[C@H]1O[C@@H]2O[C@@]3(C)CC[C@H]4[C@H](C)CC[C@@H]([C@H]1C)[C@@]24OO3 [artemether]							< 1000 nM			0.1 µM		
